Experimental data taken from patent EP0983256B1, “TRIPTOLIDE DERIVATIVES USEFUL IN THE TREATMENT OF AUTOIMMUNE DISEASES” (priority 1997, dated 1998).
In brackets after ≈: the same amount, converted by molar mass.

Columns and labels:
Jurkat E6-1 cell line = assay: Cell viability (MTT mitochondrial enzyme assay); assay type: cell-based, human; settings: same cells after removal of supernatant for the IL-2 assay; MTT 4 hours, read at 570 nm
Experimental: (§1) Jurkat E6-1 cell line (ATCC), a human leukemic T cell line or lymphocytes prepared from fresh human blood, are grown in compiete culture medium consisting of RPMI-1640 (Mediatech) supplemented with 10% v/v fetal bovine serum (HyClone, Logen, Vermont), penicillin (100 units/mL), streptomycin (200 µg/mL), and 2mM L-glutamine (GIBCO, Grand Island, New York). The cells are grown to a concentration of between 1.2 to 1.8 X 10^6 cells/mL before use. The cells are then centrifuged at low speed and resuspended to a concentration of 1.25 X 10^6 cells/mL in fresh medium.
(§2) The compounds to be tested are dissolved in DMSO, and water is added to make a 50% DMSO/water solution. The compounds are then diluted in sterile water such that the DMSO concentrations are less then 0.05%. The cells at a concentration of 1.25 X 10^6 cells/mL are stimulated with phytohemagglutinin 10 µg/mL (PHA) and 10^-8 M phorbol ester (12-O-tetradecanoylphorbol 13-acetate: TPA), (Sigma, St. Louis, Missouri). The compounds are then added and the cells are plated in flat-bottom tissue culture plates (Falcon, Lincoln Park, New Jersey), with 250,000 cells/well. Plates are then incubated at 37°C under an atmosphere of 5% CO2.
(§3) After incubation (16-24 hours), the cells are assayed for IL-2 production and cell viability (MTT). IL-2 production is assayed utilizing a solid phase ELISA immunoassay, sold in kit form by R&D Systems, Inc., Minneapolis, Minnesota.
Cell viability is measured by the use of a mitochondrial enzyme assay. After removal of the supernatant for the IL-2 assay, Cell Titer 96 (a commercial solution of MTT available from Promega, Madison, Wisconsin) is added to the plates and incubated for 4 hours at 37°C. A solubilization solution is then added and incubated overnight. The plates are then read on an ELISA plate reader at a wavelength of 570 nm. Table II presents the results for the Interleukin-2 assay, the cell viability assay and the ratio of cell viability/IL-2 inhibition.

IL-2 production = assay: Interleukin-2 assay (IL-2 production, ELISA); assay type: cell-based, human; settings: cells stimulated with PHA 10 µg/mL and 10^-8 M TPA; incubation 16-24 hours
Experimental: as §1, §2, §3

Compound | IC50/MTT (Jurkat E6-1 cell line) | IC50/IL-2 (IL-2 production)
CC(C)[C@]1(O)C=C[C@@]2(O)[C@@]3(C)CCC4=C(COC4=O)C3CC[C@@]2(O)[C@@H]1O (stereo partly drawn) [Example 2, [5aR-(5aα,6α,7β,9aα,9bα)]-3b,4,5,5a,6,7,9a,9b,10,11-decahydro-5a,6,7,9a-tetrahydroxy-9b-methyl-7-(1-methylethyl)-phenanthro[1,2-c]furan-1(3H)-one] | 90 ng/mL (≈ 0.247 µM) | 14 ng/mL (≈ 0.0384 µM)
[5R-(5α,5aβ,6β,7α,9aβ,9bβ)]-3b,4,5,5a,6,7,9a,10,11-decahydro-5a,6,9a-trihydroxy-9b-methyl-7-(1-methylethyl)-5,7-epoxyphenanthro[1,2-c]furan-1(3H)-one [Example 3] | >>1,000 ng/mL | 500 ng/mL
[5aS-(5aα,5bα,8β,9α,9aR*,10aβ)]-4,5a,5b,8,9,10a,11,11a-octahydro-5b,8,9-trihydroxy-5a-methyl-8-(1-methylethyl)-1H-oxireno[8a,9]phenanthro[1,2-c]furan-3(5H)-one [Example 1] | >>1,000 ng/mL | 1,000 ng/mL
